{"source": "patent US8445707B1", "about": "“Compound, composition and uses thereof” (Krisani Biosciences (P) Ltd., priority 2012, dated 2013)", "test": "Pharmacokinetics of KB-ND-002 compared to Cysteamine Hydrochloride and EPA in mouse plasma and brain after oral administration", "format": "in vivo, male mice", "conditions": "for maximum concentration of Cysteamine after dosing compared to endogenous levels in control group animals: analyte Cysteamine", "experimental": "Method of Treatment, Testing and Results Using the Final Compound of formula 1 at Charles River Labs: Pharmacokinetics of KB-ND-002 compared to Cysteamine Hydrochloride and EPA in Mouse Plasma and Brain\nParameter estimation was performed on mean plasma and brain Eicosapentanoiec acid, KB-ND-002 and Cysteamine concentration vs nominal sampling time values from 3 animals per timepoint. Parameter estimates were derived for each analyte, and matrix using a non-compartmental approach in WinNonlin Enterprise version 5.2.1 (Pharsight Corp., Mountain View, Calif., USA) in accordance with Charles River standard operating procedures. A WinNonlin regression analysis was performed with each concentration vs time profile reviewed by means of visual inspection to appropriately characterise the apparent terminal elimination phase and optimise the reliability of the lambda-z estimation.\nFollowing Oral Administration of KB-ND-002 (Formula 1), Cysteamine or Eicosapentanoiec Acid in Male Mice, Concentration Vs Time Profiles were Partially Evaluable for PK Purposes.", "note": "Like-named read-outs stand apart in the source and are kept apart here.", "data": [{"smiles": "NCCS", "note": "[Cysteamine]", "values": [{"measurement": "systemic exposure to Cysteamine, comparison between groups", "setting": "112 mg/kg Cysteamine administered", "value": "greatest"}, {"measurement": "maximum concentration of Cysteamine after dosing compared to endogenous levels in control group animals", "setting": "brain, oral, male mice", "value": "up to 10 fold"}, {"measurement": "maximum concentration of Cysteamine after dosing compared to endogenous levels in control group animals", "setting": "plasma, oral, male mice", "value": "over 400 fold"}, {"measurement": "Cysteamine concentrations quantifiable over sampling period", "setting": "brain, sampling duration 5 h", "value": "quantifiable for the entire duration of sampling"}, {"measurement": "Tmax", "setting": "male, mouse, brain, Group 4, 112 mg/kg Cysteamine oral, read-out: time of peak concentration of Cysteamine (Tmax)", "value": 30, "unit": "min"}, {"measurement": "Tmax", "setting": "male, mouse, plasma, Group 4, 112 mg/kg Cysteamine oral, read-out: time of peak concentration of Cysteamine (Tmax)", "value": 4.8, "unit": "min"}, {"measurement": "Cysteamine concentrations observed over sampling period", "setting": "plasma, only following administration of Cysteamine (Group 4)", "value": "only consistently observed for the entire duration of sampling"}]}, {"smiles": "CC/C=C\\C/C=C\\C/C=C\\C/C=C\\C/C=C\\CCCC(=O)O", "note": "[Eicosapentanoiec acid]", "values": [{"measurement": "systemic exposure to Eicosapentanoiec acid, comparison between groups", "setting": "112 mg/kg Eicosapentanoiec acid administered", "value": "greatest"}, {"measurement": "maximum concentration of Eicosapentanoiec acid after dosing compared to endogenous levels in control group animals", "setting": "analyte Eicosapentanoiec acid, plasma, oral, male mice", "value": "over 20 fold"}, {"measurement": "Tmax", "setting": "male, mouse, brain, Group 5, 112 mg/kg Eicosapentanoiec acid oral, read-out: time of peak concentration of Eicosapentanoiec acid (Tmax)", "value": 60, "unit": "min"}, {"measurement": "Tmax", "setting": "male, mouse, plasma, Group 5, 112 mg/kg Eicosapentanoiec acid oral, read-out: time of peak concentration of Eicosapentanoiec acid (Tmax)", "value": 60, "unit": "min"}, {"measurement": "Eicosapentanoiec acid concentrations quantifiable over sampling period", "setting": "plasma and brain, sampling duration 5 h", "value": "quantifiable for the entire duration of sampling"}]}, {"smiles": "CC/C=C\\C/C=C\\C/C=C\\C/C=C\\C/C=C/CCCC(=O)NCCSC(C)=O", "note": "[KB-ND-002]", "values": [{"measurement": "Kp", "setting": "male, mouse, brain and plasma, oral, brain at highest dose vs plasma after low dose (60 mg/kg), read-out: systemic exposure to KB-ND-002 in brain relative to plasma", "value": "< 0.01"}, {"measurement": "dose proportionality based on dose normalised estimates of Cmax and AUC(0-t)", "setting": "plasma, oral KB-ND-002", "value": "sub-proportional"}]}]}
